Assay results from patent publication US20220089592A1, “IMIDAZO[1,2-A]PYRIDINYL DERIVATIVES AS IRAK4 INHIBITORS” (priority 2019, published 2022).

Columns and labels:
[1] = biological target: T1, IRAK4 (Homo sapiens, UniProt Q9NWZ3); assay: 2-hour 10 μM ATP Biochemical Assay (MesoScale Detection format; IRAK4 phosphorylation of biotin labeled IRAK1 activation loop peptide); settings: IRAK4 MSD BIOCHEMICAL (10 μM ATP) IC50 (μM), 1 nM IRAK4, 2 hours
T1 sequence (Q9NWZ3 1-460): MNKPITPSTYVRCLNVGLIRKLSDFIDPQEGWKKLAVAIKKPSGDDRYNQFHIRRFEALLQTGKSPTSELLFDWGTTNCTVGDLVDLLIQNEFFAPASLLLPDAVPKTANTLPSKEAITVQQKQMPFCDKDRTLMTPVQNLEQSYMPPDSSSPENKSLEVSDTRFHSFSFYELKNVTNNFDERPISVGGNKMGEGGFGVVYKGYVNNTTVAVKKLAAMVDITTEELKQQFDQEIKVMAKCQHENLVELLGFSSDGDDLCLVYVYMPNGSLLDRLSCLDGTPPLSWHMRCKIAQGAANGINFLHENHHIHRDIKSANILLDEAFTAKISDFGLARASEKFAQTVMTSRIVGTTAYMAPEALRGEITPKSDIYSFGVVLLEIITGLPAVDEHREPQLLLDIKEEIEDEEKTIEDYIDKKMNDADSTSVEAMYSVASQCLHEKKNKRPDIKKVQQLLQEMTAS
Method: The 2-hour 10 μM ATP Biochemical Assay employs a MesoScale Detection (MSD) format.
The activity is quenched with 11 μl of 70 mM EDTA, pH 8.
To detect the phosphorylated biotinylated peptide substrate, 30 μl of the quenched reaction mixture is added to equivalent wells of a 384 well streptavidin coated MesoScale plate (Meso Scale Discovery #L21SA-1). After a 1 hour incubation of the plate for 1 hour at room temperature with gentle mixing, the plate wells are washed 3 times with 50 mM Tris, pH 7.5, 150 mM NaCl, 0.02% Tween-20.
A 25 μl volume of 1:500 anti-P-Threonine Rabbit polyclonal Antibody plus 1:500 Goat-anti-Rabbit Sulfo Tag Antibody (Meso Scale Discovery R32AB-1) in 50 mM Tris, pH 7.5, 150 mM NaCl, 0.02% Tween-20 plus 2% BSA is then added to each well. After a 1-hour incubation of the plate for 1 hour at room temperature with gentle mixing, the plate wells are washed, 3 times with 50 mM Tris, pH 7.5, 150 mM NaCl, 0.02% Tween-20. A 40 μl volume of 2×MSD Read Buffer (Meso Scale Discovery R92TC-1) is added to each well, and the plate is read immediately in an MSD Plate Reader (Meso Scale Discovery).

[2] = biological target: T1, IRAK4; assay: 2-hour 1 mM ATP IRAK4 Biochemical assay (as above, but with 100 pM IRAK4 and 1 mM ATP); settings: IRAK4 MSD BIOCHEMICAL (1 mM ATP) IC50 (μM), 100 pM IRAK4, 2 hours
Method in brief: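 MSD electrochemiluminescence read-out: biotinylated peptide product bound to streptavidin plates, probed with anti-P-Thr rabbit antibody and Sulfo-Tag goat anti-rabbit. Kinase reaction used 1 mM ATP and 100 pM IRAK4 over 2 hours before EDTA quench.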

O=C(Nc1cn2cc(C3CCOCC3)nc2cc1OC1CCCC1)c1cccc(C(F)F)n1 [Example 175, N-(7-(cyclopentyloxy)-2-(tetrahydro-2H-pyran-4-yl)imidazo[1,2-a]pyridin-6-yl)-6-(difluoromethyl)picolinamide] showed an IC50 [1] of 0.001 µM.
CCOc1cc2nc(C(C)(C)C#N)cn2cc1NC(=O)c1cccc(C(F)CF)n1 (stereo not shown) [Example 245, N-(2-(2-cyanopropan-2-yl)-7-ethoxyimidazo[1,2-a]pyridin-6-yl)-6-(1,2-difluoroethyl)picolinamide] showed an IC50 [1] of 0.002 µM.
For CCOc1cc2nc(C3CC3)cn2cc1NC(=O)c1cccc(C2(O)CCC2)n1 [Example 132, N-(2-cyclopropyl-7-ethoxyimidazo[1,2-a]pyridin-6-yl)-6-(1-hydroxycyclobutyl)picolinamide], the IC50 [1] was 0.018 µM.
COc1cc(NC(=O)c2cccc(C(F)F)n2)cn2cc(C3CC3(F)F)nc12 (single isomer, unassigned) [Example 513, N-(2-(2,2-difluorocyclopropyl)-8-methoxyimidazo[1,2-a]pyridin-6-yl)-6-(difluoromethyl)picolinamide] showed an IC50 [1] of 0.015 µM.
CCOc1cc2nc(CC3CCOC3)cn2cc1NC(=O)c1coc(-c2cnn(C)c2)n1 (single isomer, unassigned) [Example 252, N-(7-ethoxy-2-((tetrahydrofuran-3-yl)methyl)imidazo[1,2-a]pyridin-6-yl)-2-(1-methyl-1H-pyrazol-4-yl)oxazole-4-carboxamide] was tested, and the IC50 [1] was 0.001 µM.
Molecule O=C(Nc1cc(Br)c2nc(C3CCOCC3)cn2c1)c1cccc(C(F)(F)F)n1 [Example 106, N-(8-bromo-2-(tetrahydro-2H-pyran-4-yl)imidazo[1,2-a]pyridin-6-yl)-6-(trifluoromethyl)picolinamide] has an IC50 [1] of 0.027 µM.
In the case of CC1(COc2cc3nc(C4CCOCC4)cn3cc2NC(=O)c2cnn(C(F)F)c2)COC1 [Example 161, 1-(difluoromethyl)-N-(7-((3-methyloxetan-3-yl)methoxy)-2-(tetrahydro-2H-pyran-4-yl)imidazo[1,2-a]pyridin-6-yl)-1H-pyrazole-4-carboxamide], the IC50 [1] is reported as 0.4 µM.
For COc1nc(NC(=O)c2ccn(CC(F)F)n2)cn2cc(C3CCOCC3)nc12 [Example 452, 1-(2,2-difluoroethyl)-N-(8-methoxy-2-(tetrahydro-2H-pyran-4-yl)imidazo[1,2-a]pyrazin-6-yl)-1H-pyrazole-3-carboxamide], the IC50 [1] was 0.031 µM.
With CCOc1cc2nc(C3CC3)cn2cc1NC(=O)c1cccc(C(F)(F)F)c1 [Example 54, N-(2-cyclopropyl-7-ethoxyimidazo[1,2-a]pyridin-6-yl)-3-(trifluoromethyl)benzamide] the IC50 [1] was 0.14 µM.
Work on CCOc1cc2nc(C3CCOCC3)cn2cc1NC(=O)c1ccccc1F [Example 212, N-(7-ethoxy-2-(tetrahydro-2H-pyran-4-yl)imidazo[1,2-a]pyridin-6-yl)-2-fluorobenzamide] yielded an IC50 [1] of 0.022 µM.
For CCOc1cc(NC(=O)c2cccc(C(F)F)n2)cn2cc(C3CC3)nc12 [Example 28, N-(2-cyclopropyl-8-ethoxyimidazo[1,2-a]pyridin-6-yl)-6-(difluoromethyl)picolinamide], the IC50 [1] was 0.043 µM.
In the case of CCOc1cc2nc(CC)cn2cc1NC(=O)c1ccc(F)cc1F [Example 40, N-(7-ethoxy-2-ethylimidazo[1,2-a]pyridin-6-yl)-2,4-difluorobenzamide], the IC50 [1] is reported as 0.34 µM.
With CCOc1cc2nc(C3CCN(C)C(=O)C3)cn2cc1NC(=O)c1cccc(C(F)F)n1 (racemic) [Example 75, 6-(difluoromethyl)-N-(7-ethoxy-2-(1-methyl-2-oxopiperidin-4-yl)imidazo[1,2-a]pyridin-6-yl)picolinamide] the IC50 [1] was 0.001 µM.
Work on CCOc1cc2nc(C3CN(CC(F)F)C3)cn2cc1NC(=O)c1ccn(CC(F)F)n1 [Example 291, 1-(2,2-difluoroethyl)-N-(2-(1-(2,2-difluoroethyl)azetidin-3-yl)-7-ethoxyimidazo[1,2-a]pyridin-6-yl)-1H-pyrazole-3-carboxamide] yielded an IC50 [1] of 0.003 µM.
Work on CCOc1cc2nc(CC3CCOC3)cn2cc1NC(=O)c1cn(C)cn1 (stereo not shown) [Example 157, N-(7-ethoxy-2-((tetrahydrofuran-3-yl)methyl)imidazo[1,2-a]pyridin-6-yl)-1-methyl-1H-imidazole-4-carboxamide] yielded an IC50 [1] of 2.3 µM.
In the case of CC[C@@H]1[C@H](F)C(=O)N[C@@H]1COc1cc2nc(C3CC3)cn2cc1NC(=O)c1cccc(C(F)F)n1 [Example 11, N-(2-cyclopropyl-7-(((2S,3S,4S)-3-ethyl-4-fluoro-5-oxopyrrolidin-2-yl)methoxy)imidazo[1,2-a]pyridin-6-yl)-6-(difluoromethyl)picolinamide], the IC50 [1] is reported as 0.079 µM.
In the case of CCOc1cc2nc(C3CCOC(C)(C)C3)cn2cc1NC(=O)c1cccc(C(F)(F)F)n1 (stereo not shown) [Example 113, N-(2-(2,2-dimethyltetrahydro-2H-pyran-4-yl)-7-ethoxyimidazo[1,2-a]pyridin-6-yl)-6-(trifluoromethyl)picolinamide], the IC50 [1] is reported as 0.001 µM.
Molecule COc1cc(NC(=O)c2cccc(C(F)F)n2)cn2cc(C34CC(C(F)F)(C3)C4)nc12 [Example 512, 6-(difluoromethyl)-N-(2-(3-(difluoromethyl)bicyclo[1.1.1]pentan-1-yl)-8-methoxyimidazo[1,2-a]pyridin-6-yl)picolinamide 2,2,2-trifluoroacetate] has an IC50 [1] of 0.004 µM.
For O=C(Nc1cn2cc(C3CC3)nc2cc1OCCN1CCOCC1)c1cccc(C(F)F)n1 [Example 102, N-(2-cyclopropyl-7-(2-morpholinoethoxy)imidazo[1,2-a]pyridin-6-yl)-6-(difluoromethyl)picolinamide], the IC50 [1] was 0.061 µM.
In the case of COc1cc(NC(=O)c2cccc(C(F)F)n2)cn2cc(C3CC3(F)F)nc12 (single isomer, unassigned) [Example 514, N-(2-(2,2-difluorocyclopropyl)-8-methoxyimidazo[1,2-a]pyridin-6-yl)-6-(difluoromethyl)picolinamide], the IC50 [1] is reported as 0.016 µM.
With CC(C)Oc1nc(NC(=O)c2cnn3cccc(F)c23)cn2cc(C34COC(C)(C3)C4)nc12 [Example 482, 4-fluoro-N-(8-isopropoxy-2-(1-methyl-2-oxabicyclo[2.1.1]hexan-4-yl)imidazo[1,2-a]pyrazin-6-yl)pyrazolo[1,5-a]pyridine-3-carboxamide] the IC50 [2] was 0.015 µM.
With CCCOc1nc(NC(=O)c2ccccc2OC)cn2cc(C34COC(C)(C3)C4)nc12 [Example 335, 2-methoxy-N-(2-(1-methyl-2-oxabicyclo[2.1.1]hexan-4-yl)-8-propoxyimidazo[1,2-a]pyrazin-6-yl)benzamide] the IC50 [2] was 0.011 µM.
Molecule Cc1nc(C(=O)Nc2cn3cc(C45COC(C)(C4)C5)nc3cc2OC(C)C)co1 [Example 529, N-(7-isopropoxy-2-(1-methyl-2-oxabicyclo[2.1.1]hexan-4-yl)imidazo[1,2-a]pyridin-6-yl)-2-methyloxazole-4-carboxamide] has an IC50 [2] of 0.001 µM.
With O=C(Nc1cn2cc(C3CCOCC3)nc2cc1C(F)(F)F)c1cccc(C(F)F)n1 [Example 312, 6-(difluoromethyl)-N-(2-(tetrahydro-2H-pyran-4-yl)-7-(trifluoromethyl)imidazo[1,2-a]pyridin-6-yl)picolinamide] the IC50 [2] was 0.052 µM.
Work on COc1ncccc1C(=O)Nc1cc(OC(F)F)c2nc(C34COC(C)(C3)C4)cn2c1 [Example 420, N-(8-(difluoromethoxy)-2-(1-methyl-2-oxabicyclo[2.1.1]hexan-4-yl)imidazo[1,2-a]pyridin-6-yl)-2-methoxynicotinamide 2,2,2-trifluoroacetate] yielded an IC50 [2] of 0.071 µM.
CC(C)Oc1cc2nc(C3CCOCC3)c(F)n2cc1NC(=O)c1cccc(C(F)F)n1 [Example 352, 6-(difluoromethyl)-N-(3-fluoro-7-isopropoxy-2-(tetrahydro-2H-pyran-4-yl)imidazo[1,2-a]pyridin-6-yl)picolinamide] showed an IC50 [2] of 0.001 µM.
COc1nc(NC(=O)c2coc(C(F)F)n2)cn2cc(C34COC(C)(C3)C4)nc12 [Example 439, 2-(difluoromethyl)-N-(8-methoxy-2-(1-methyl-2-oxabicyclo[2.1.1]hexan-4-yl)imidazo[1,2-a]pyrazin-6-yl)oxazole-4-carboxamide] was tested, and the IC50 [2] was 0.063 µM.
In the case of COc1nc(NC(=O)c2coc(C3CC3)n2)cn2cc(C34CCC(C)(C3)OC4)nc12 (stereo not shown) [Example 472, 2-cyclopropyl-N-(8-methoxy-2-(1-methyl-2-oxabicyclo[2.2.1]heptan-4-yl)imidazo[1,2-a]pyrazin-6-yl)oxazole-4-carboxamide 2,2,2-trifluoroacetate], the IC50 [2] is reported as 0.015 µM.
